Measurements reported in the kinase profiling compilation of Christmann-Franck et al. (2016).

Key:
Assay in all cases: KINOMEscan competition binding
TEK (human) = TEK (human) (UniProt Q02763); conditions: compound 10.0 µM
CSNK1G1 (human) = CSNK1G1 (human) (UniProt Q9HCP0); conditions: compound 10.0 µM
AAK1 (human) = AAK1 (human) (UniProt Q2M2I8); conditions: compound 10.0 µM
TAOK3 (human) = TAOK3 (human) (UniProt Q9H2K8); conditions: compound 10.0 µM
MAPK15 (human) = MAPK15 (human) (UniProt Q8TD08); conditions: for kinase still bound, per cent of control: compound 10.0 µM
PKN1 (human) = PKN1 (human) (UniProt Q16512); conditions: compound 10.0 µM
STK25 (human) = STK25 (human) (UniProt O00506); conditions: compound 10.0 µM
MAP2K3 (human) = MAP2K3 (human) (UniProt P46734); conditions: compound 10.0 µM
[1] = biological target: TYK2 JH2 pseudokinase (human) (UniProt P29597); conditions: compound 10.0 µM
PDGFRB (human) = PDGFRB (human) (UniProt P09619); conditions: compound 10.0 µM
RPS6KA4 KD2 (human) = RPS6KA4 KD2 (human) (UniProt O75676); conditions: compound 10.0 µM
TLK1 (human) = TLK1 (human) (UniProt Q9UKI8); conditions: compound 10.0 µM
NEK9 (human) = NEK9 (human) (UniProt Q8TD19); conditions: compound 10.0 µM
[2] = system: FLT3 (human), P36888 [D835H]; conditions: compound 10.0 µM
MAPK7 (human) = MAPK7 (human) (UniProt Q13164); conditions: compound 10.0 µM
TTK (human) = TTK (human) (UniProt P33981); conditions: compound 10.0 µM
[3] = system: EGFR (human), P00533 [A750P; 747-749 del]; conditions: compound 10.0 µM
ACVR2A (human) = ACVR2A (human) (UniProt P27037); conditions: compound 10.0 µM
RPS6KA2 KD2 (human) = RPS6KA2 KD2 (human) (UniProt Q15349); conditions: compound 10.0 µM
EPHB4 (human) = EPHB4 (human) (UniProt P54760); conditions: compound 10.0 µM
MAPK8 (human) = MAPK8 (human) (UniProt P45983); conditions: compound 10.0 µM
[4] = system: RET (human), P07949 [V804M]; conditions: compound 10.0 µM
RIOK1 (human) = RIOK1 (human) (UniProt Q9BRS2); conditions: compound 10.0 µM
AURKC (human) = AURKC (human) (UniProt Q9UQB9); conditions: compound 10.0 µM
LTK (human) = LTK (human) (UniProt P29376); conditions: compound 10.0 µM
MAP2K1 (human) = MAP2K1 (human) (UniProt Q02750); conditions: compound 10.0 µM
EPHA4 (human) = EPHA4 (human) (UniProt P54764); conditions: compound 10.0 µM
MAPK14 (human) = MAPK14 (human) (UniProt Q16539); conditions: compound 10.0 µM
KDR (human) = KDR (human) (UniProt P35968); conditions: compound 10.0 µM
SIK1 (human) = SIK1 (human) (UniProt P57059); conditions: compound 10.0 µM
MAPK6 (human) = MAPK6 (human) (UniProt Q16659); conditions: compound 10.0 µM
ITK (human) = ITK (human) (UniProt Q08881); conditions: compound 10.0 µM
RPS6KA1 KD1 (human) = RPS6KA1 KD1 (human) (UniProt Q15418); conditions: compound 10.0 µM
[5] = biological target: JAK2 JH1 catalytic (human) (UniProt O60674); conditions: compound 10.0 µM
LYN (human) = LYN (human) (UniProt P07948); conditions: compound 10.0 µM
[6] = biological target: JAK1 JH2 pseudokinase (human) (UniProt P23458); conditions: compound 10.0 µM
MYLK2 (human) = MYLK2 (human) (UniProt Q9H1R3); conditions: compound 10.0 µM
STK11 (human) = STK11 (human) (UniProt Q15831); conditions: compound 10.0 µM
RPS6KA6 KD1 (human) = RPS6KA6 KD1 (human) (UniProt Q9UK32); conditions: compound 10.0 µM
CHUK (human) = CHUK (human) (UniProt O15111); conditions: compound 10.0 µM
ULK2 (human) = ULK2 (human) (UniProt Q8IYT8); conditions: for kinase still bound, per cent of control: compound 10.0 µM
PRKACA (human) = PRKACA (human) (UniProt P17612); conditions: compound 10.0 µM

RPS6KA1 KD1 (human), sequence (Q15418 whole entry, looked up): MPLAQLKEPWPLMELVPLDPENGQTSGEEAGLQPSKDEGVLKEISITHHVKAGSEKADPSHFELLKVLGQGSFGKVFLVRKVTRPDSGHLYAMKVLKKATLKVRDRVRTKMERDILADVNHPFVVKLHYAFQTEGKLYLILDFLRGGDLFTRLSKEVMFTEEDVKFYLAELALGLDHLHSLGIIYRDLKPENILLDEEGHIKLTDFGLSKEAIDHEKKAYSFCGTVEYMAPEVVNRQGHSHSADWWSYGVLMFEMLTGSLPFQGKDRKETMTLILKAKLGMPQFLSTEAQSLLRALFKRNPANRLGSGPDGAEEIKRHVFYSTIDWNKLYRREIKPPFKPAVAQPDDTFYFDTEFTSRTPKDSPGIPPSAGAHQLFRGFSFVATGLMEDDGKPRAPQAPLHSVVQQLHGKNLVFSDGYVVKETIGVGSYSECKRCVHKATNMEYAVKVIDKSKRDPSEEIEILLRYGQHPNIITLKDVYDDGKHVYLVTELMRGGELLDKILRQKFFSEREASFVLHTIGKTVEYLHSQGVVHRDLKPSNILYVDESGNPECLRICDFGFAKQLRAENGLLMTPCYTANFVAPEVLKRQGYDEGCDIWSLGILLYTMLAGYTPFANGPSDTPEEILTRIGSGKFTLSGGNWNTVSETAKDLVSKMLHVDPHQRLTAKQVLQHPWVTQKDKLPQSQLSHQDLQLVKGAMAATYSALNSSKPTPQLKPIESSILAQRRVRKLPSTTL
STK11 (human), sequence (Q15831 whole entry, looked up): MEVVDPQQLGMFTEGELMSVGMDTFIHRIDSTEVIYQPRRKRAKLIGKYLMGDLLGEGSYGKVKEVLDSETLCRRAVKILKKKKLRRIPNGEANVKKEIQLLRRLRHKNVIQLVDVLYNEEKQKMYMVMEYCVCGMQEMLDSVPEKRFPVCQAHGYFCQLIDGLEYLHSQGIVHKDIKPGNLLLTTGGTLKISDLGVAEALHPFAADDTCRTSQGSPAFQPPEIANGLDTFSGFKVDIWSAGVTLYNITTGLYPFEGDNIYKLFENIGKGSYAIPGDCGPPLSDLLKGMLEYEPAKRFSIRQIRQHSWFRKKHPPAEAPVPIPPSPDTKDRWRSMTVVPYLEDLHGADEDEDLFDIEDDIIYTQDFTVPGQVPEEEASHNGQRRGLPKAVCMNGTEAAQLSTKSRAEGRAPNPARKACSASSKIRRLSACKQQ
ULK2 (human), sequence (Q8IYT8 whole entry, looked up): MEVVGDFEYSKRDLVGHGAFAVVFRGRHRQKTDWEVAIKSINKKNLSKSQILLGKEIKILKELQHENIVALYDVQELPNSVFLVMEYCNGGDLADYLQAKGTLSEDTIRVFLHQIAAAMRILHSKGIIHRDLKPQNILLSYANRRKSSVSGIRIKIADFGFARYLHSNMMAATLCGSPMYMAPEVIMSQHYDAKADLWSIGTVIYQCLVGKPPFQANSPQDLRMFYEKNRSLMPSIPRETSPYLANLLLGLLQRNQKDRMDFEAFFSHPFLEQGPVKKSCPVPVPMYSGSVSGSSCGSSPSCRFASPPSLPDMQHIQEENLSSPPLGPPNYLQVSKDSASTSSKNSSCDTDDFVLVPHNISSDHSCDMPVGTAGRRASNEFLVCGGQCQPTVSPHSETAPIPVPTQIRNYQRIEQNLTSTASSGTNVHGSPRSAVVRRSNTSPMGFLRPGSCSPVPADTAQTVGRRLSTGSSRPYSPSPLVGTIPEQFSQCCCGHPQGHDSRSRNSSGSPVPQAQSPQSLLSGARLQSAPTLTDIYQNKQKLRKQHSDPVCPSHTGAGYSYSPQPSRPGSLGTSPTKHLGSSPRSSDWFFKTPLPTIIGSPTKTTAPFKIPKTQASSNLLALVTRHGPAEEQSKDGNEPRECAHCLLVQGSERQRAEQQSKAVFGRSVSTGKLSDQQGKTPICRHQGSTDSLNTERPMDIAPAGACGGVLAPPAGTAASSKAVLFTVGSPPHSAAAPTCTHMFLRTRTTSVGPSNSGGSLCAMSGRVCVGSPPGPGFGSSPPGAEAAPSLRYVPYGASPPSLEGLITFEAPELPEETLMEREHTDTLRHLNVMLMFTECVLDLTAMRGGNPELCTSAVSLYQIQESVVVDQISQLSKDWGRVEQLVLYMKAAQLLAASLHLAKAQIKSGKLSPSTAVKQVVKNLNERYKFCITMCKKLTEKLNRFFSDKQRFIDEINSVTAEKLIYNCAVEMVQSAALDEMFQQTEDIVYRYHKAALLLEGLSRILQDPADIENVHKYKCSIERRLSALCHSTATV
MAP2K1 (human), sequence (Q02750 whole entry, looked up): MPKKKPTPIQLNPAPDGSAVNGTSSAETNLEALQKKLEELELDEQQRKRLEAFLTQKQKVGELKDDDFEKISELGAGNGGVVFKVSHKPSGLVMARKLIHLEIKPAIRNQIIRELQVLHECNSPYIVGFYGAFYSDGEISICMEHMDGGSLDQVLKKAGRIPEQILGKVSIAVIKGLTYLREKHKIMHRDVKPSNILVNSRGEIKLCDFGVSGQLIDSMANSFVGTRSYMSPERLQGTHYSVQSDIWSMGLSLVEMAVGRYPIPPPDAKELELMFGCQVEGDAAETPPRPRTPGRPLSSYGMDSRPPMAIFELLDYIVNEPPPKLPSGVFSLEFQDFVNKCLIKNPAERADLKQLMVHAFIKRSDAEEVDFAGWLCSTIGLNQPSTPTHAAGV
PDGFRB (human), sequence (P09619 whole entry, looked up): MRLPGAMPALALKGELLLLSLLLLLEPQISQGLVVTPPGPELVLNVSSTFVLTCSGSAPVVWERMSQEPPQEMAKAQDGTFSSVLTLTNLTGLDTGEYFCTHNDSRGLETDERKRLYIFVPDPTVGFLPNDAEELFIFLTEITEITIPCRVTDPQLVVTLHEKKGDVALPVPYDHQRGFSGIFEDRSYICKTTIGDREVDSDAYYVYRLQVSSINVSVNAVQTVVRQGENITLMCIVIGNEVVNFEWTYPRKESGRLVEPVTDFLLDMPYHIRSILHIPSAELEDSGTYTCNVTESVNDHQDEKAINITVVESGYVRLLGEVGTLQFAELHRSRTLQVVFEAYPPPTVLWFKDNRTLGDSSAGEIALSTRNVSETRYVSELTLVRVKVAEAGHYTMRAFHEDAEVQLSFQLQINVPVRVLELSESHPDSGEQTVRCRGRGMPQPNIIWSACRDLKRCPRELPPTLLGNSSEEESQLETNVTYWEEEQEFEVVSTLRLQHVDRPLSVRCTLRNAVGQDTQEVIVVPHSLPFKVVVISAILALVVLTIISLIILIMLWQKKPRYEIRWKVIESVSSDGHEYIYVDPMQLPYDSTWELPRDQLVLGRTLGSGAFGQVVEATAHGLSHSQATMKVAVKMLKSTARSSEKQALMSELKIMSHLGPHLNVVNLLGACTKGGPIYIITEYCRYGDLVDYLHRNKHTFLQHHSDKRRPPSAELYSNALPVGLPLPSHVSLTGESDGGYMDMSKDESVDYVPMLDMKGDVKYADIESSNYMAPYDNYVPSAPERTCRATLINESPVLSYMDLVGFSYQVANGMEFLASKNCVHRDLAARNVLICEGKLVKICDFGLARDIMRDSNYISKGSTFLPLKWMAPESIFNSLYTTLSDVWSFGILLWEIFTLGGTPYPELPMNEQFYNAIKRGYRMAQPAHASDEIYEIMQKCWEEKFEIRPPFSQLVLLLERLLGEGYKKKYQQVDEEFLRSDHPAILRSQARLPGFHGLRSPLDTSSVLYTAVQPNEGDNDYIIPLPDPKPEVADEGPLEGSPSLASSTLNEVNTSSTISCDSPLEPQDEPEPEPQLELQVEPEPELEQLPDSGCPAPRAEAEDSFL
ACVR2A (human), sequence (P27037 whole entry, looked up): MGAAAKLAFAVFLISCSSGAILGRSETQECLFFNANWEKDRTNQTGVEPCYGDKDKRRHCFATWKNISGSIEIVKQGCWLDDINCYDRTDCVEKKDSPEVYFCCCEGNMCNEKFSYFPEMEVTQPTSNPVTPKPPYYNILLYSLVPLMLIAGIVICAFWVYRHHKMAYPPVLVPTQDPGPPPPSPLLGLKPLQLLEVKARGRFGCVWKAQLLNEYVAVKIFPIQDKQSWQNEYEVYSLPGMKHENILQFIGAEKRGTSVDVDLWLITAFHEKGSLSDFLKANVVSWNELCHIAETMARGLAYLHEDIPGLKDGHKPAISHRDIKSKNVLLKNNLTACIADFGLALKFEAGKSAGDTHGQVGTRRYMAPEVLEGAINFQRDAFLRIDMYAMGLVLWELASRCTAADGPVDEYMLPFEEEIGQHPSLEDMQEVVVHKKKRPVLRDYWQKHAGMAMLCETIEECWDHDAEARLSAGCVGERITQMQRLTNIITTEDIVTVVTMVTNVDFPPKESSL
MAPK15 (human), sequence (Q8TD08 whole entry, looked up): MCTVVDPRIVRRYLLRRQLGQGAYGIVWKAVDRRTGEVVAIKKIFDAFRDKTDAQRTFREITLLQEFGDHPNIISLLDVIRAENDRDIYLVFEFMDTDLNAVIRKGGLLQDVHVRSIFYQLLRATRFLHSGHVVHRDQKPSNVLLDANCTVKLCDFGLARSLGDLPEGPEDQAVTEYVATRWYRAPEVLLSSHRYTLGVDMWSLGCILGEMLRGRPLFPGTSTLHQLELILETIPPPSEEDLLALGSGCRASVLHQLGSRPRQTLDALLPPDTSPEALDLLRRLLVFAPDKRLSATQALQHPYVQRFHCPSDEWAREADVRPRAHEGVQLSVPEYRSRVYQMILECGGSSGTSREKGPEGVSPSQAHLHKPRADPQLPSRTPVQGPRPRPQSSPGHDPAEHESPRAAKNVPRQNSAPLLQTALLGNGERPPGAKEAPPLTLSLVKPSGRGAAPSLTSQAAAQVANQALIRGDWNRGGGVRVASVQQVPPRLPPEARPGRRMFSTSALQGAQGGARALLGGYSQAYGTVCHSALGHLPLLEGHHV

Which results are given for `COc1cc(N2CCN(C)CC2)ccc1Nc1ncc2c(n1)N(C)c1ccccc1N(C)C2=O`?
kinase still bound, per cent of control (TEK (human)): 100%; kinase still bound, per cent of control (CSNK1G1 (human)): 100%; kinase still bound, per cent of control (AAK1 (human)): 88%; kinase still bound, per cent of control (TAOK3 (human)): 67%; kinase still bound, per cent of control (MAPK15 (human)): 100%; kinase still bound, per cent of control (PKN1 (human)): 80%; kinase still bound, per cent of control (STK25 (human)): 89%; kinase still bound, per cent of control (MAP2K3 (human)): 92%; kinase still bound, per cent of control [1]: 100%; kinase still bound, per cent of control (PDGFRB (human)): 98%; kinase still bound, per cent of control (RPS6KA4 KD2 (human)): 88%; kinase still bound, per cent of control (TLK1 (human)): 97%; kinase still bound, per cent of control (NEK9 (human)): 97%; kinase still bound, per cent of control [2]: 86%; kinase still bound, per cent of control (MAPK7 (human)): 30%; kinase still bound, per cent of control (TTK (human)): 95%; kinase still bound, per cent of control [3]: 49%; kinase still bound, per cent of control (ACVR2A (human)): 92%; kinase still bound, per cent of control (RPS6KA2 KD2 (human)): 97%; kinase still bound, per cent of control (EPHB4 (human)): 100%; kinase still bound, per cent of control (MAPK8 (human)): 86%; kinase still bound, per cent of control [4]: 100%; kinase still bound, per cent of control (RIOK1 (human)): 78%; kinase still bound, per cent of control (AURKC (human)): 86%; kinase still bound, per cent of control (LTK (human)): 26%; kinase still bound, per cent of control (MAP2K1 (human)): 85%; kinase still bound, per cent of control (EPHA4 (human)): 95%; kinase still bound, per cent of control (MAPK14 (human)): 100%; kinase still bound, per cent of control (KDR (human)): 100%; kinase still bound, per cent of control (SIK1 (human)): 100%; kinase still bound, per cent of control (MAPK6 (human)): 100%; kinase still bound, per cent of control (ITK (human)): 98%; kinase still bound, per cent of control (RPS6KA1 KD1 (human)): 97%; kinase still bound, per cent of control [5]: 100%; kinase still bound, per cent of control (LYN (human)): 79%; kinase still bound, per cent of control [6]: 97%; kinase still bound, per cent of control (MYLK2 (human)): 100%; kinase still bound, per cent of control (STK11 (human)): 100%; kinase still bound, per cent of control (RPS6KA6 KD1 (human)): 100%; kinase still bound, per cent of control (CHUK (human)): 60%; kinase still bound, per cent of control (ULK2 (human)): 100%; kinase still bound, per cent of control (PRKACA (human)): 100%

What does the source list for `CN1C(=O)c2ccccc2N(C)c2nc(NS(=O)(=O)c3ccc(N)cc3)ncc21`?
kinase still bound, per cent of control (TEK (human)): 97%; kinase still bound, per cent of control (CSNK1G1 (human)): 100%; kinase still bound, per cent of control (AAK1 (human)): 100%; kinase still bound, per cent of control (TAOK3 (human)): 72%; kinase still bound, per cent of control (MAPK15 (human)): 99%; kinase still bound, per cent of control (PKN1 (human)): 85%; kinase still bound, per cent of control (STK25 (human)): 100%; kinase still bound, per cent of control (MAP2K3 (human)): 74%; kinase still bound, per cent of control [1]: 63%; kinase still bound, per cent of control (PDGFRB (human)): 76%; kinase still bound, per cent of control (RPS6KA4 KD2 (human)): 100%; kinase still bound, per cent of control (TLK1 (human)): 100%; kinase still bound, per cent of control (NEK9 (human)): 100%; kinase still bound, per cent of control [2]: 95%; kinase still bound, per cent of control (MAPK7 (human)): 100%; kinase still bound, per cent of control (TTK (human)): 100%; kinase still bound, per cent of control [3]: 100%; kinase still bound, per cent of control (ACVR2A (human)): 100%; kinase still bound, per cent of control (RPS6KA2 KD2 (human)): 93%; kinase still bound, per cent of control (EPHB4 (human)): 100%; kinase still bound, per cent of control (MAPK8 (human)): 100%; kinase still bound, per cent of control [4]: 100%; kinase still bound, per cent of control (RIOK1 (human)): 66%; kinase still bound, per cent of control (AURKC (human)): 74%; kinase still bound, per cent of control (LTK (human)): 82%; kinase still bound, per cent of control (MAP2K1 (human)): 100%; kinase still bound, per cent of control (EPHA4 (human)): 100%; kinase still bound, per cent of control (MAPK14 (human)): 100%; kinase still bound, per cent of control (KDR (human)): 88%; kinase still bound, per cent of control (SIK1 (human)): 100%; kinase still bound, per cent of control (MAPK6 (human)): 78%; kinase still bound, per cent of control (ITK (human)): 100%; kinase still bound, per cent of control (RPS6KA1 KD1 (human)): 100%; kinase still bound, per cent of control [5]: 42%; kinase still bound, per cent of control (LYN (human)): 100%; kinase still bound, per cent of control [6]: 100%; kinase still bound, per cent of control (MYLK2 (human)): 88%; kinase still bound, per cent of control (STK11 (human)): 100%; kinase still bound, per cent of control (RPS6KA6 KD1 (human)): 100%; kinase still bound, per cent of control (CHUK (human)): 95%; kinase still bound, per cent of control (ULK2 (human)): 89%; kinase still bound, per cent of control (PRKACA (human)): 100%

Which results are given for `O=C1NC(=O)/C(=C/c2c[nH]c(=O)c(-c3ccc(N4CCNCC4)nc3)c2)S1`?
kinase still bound, per cent of control (TEK (human)): 100%; kinase still bound, per cent of control (CSNK1G1 (human)): 35%; kinase still bound, per cent of control (AAK1 (human)): 2.4%; kinase still bound, per cent of control (TAOK3 (human)): 8.6%; Kd (MAPK15 (human)): 390 nM; kinase still bound, per cent of control (MAPK15 (human)): 0.5%; kinase still bound, per cent of control (PKN1 (human)): 28%; kinase still bound, per cent of control (STK25 (human)): 77%; kinase still bound, per cent of control (MAP2K3 (human)): 65%; kinase still bound, per cent of control [1]: 72%; kinase still bound, per cent of control (PDGFRB (human)): 67%; kinase still bound, per cent of control (RPS6KA4 KD2 (human)): 3.2%; kinase still bound, per cent of control (TLK1 (human)): 66%; kinase still bound, per cent of control (NEK9 (human)): 71%; kinase still bound, per cent of control [2]: 71%; kinase still bound, per cent of control (MAPK7 (human)): 48%; kinase still bound, per cent of control (TTK (human)): 59%; kinase still bound, per cent of control [3]: 56%; kinase still bound, per cent of control (ACVR2A (human)): 76%; kinase still bound, per cent of control (RPS6KA2 KD2 (human)): 1.2%; kinase still bound, per cent of control (EPHB4 (human)): 100%; kinase still bound, per cent of control (MAPK8 (human)): 60%; kinase still bound, per cent of control [4]: 88%; kinase still bound, per cent of control (RIOK1 (human)): 5%; kinase still bound, per cent of control (AURKC (human)): 57%; kinase still bound, per cent of control (LTK (human)): 100%; kinase still bound, per cent of control (MAP2K1 (human)): 55%; kinase still bound, per cent of control (EPHA4 (human)): 99%; kinase still bound, per cent of control (MAPK14 (human)): 100%; kinase still bound, per cent of control (KDR (human)): 100%; kinase still bound, per cent of control (SIK1 (human)): 100%; kinase still bound, per cent of control (MAPK6 (human)): 93%; kinase still bound, per cent of control (ITK (human)): 89%; kinase still bound, per cent of control (RPS6KA1 KD1 (human)): 71%; kinase still bound, per cent of control [5]: 14%; kinase still bound, per cent of control (LYN (human)): 77%; kinase still bound, per cent of control [6]: 64%; kinase still bound, per cent of control (MYLK2 (human)): 14%; kinase still bound, per cent of control (STK11 (human)): 17%; kinase still bound, per cent of control (RPS6KA6 KD1 (human)): 34%; kinase still bound, per cent of control (CHUK (human)): 53%; Kd (ULK2 (human)): 220 nM; kinase still bound, per cent of control (ULK2 (human)): 0.85%; kinase still bound, per cent of control (PRKACA (human)): 100%
